Experimental findings from US20150141433A1, “N-ARYLMETHYL SULFONAMIDE NEGATIVE MODULATORS OF NR2A” (Mnemosyne Pharmaceuticals, Inc., priority 2013, published 2015) are described below.

The assay addresses T1, NR1/NR2A (Homo sapiens, UniProt Q05586+Q12879).
T1 construct: host or cells: HEK293 (tetracycline-inducible NR2A expression)
Put plainly: FDSS Ca2+ influx inhibition assay in HEK293 cells expressing NR1/NR2A. The assay is classed as cell-based. The following applies: 3 μM glutamate, 3 μM glycine, 1 mM Ca2+, Ca2+ influx inhibition relative to MK801, read-out: NR2A IC50. As to the method: Cell Culture and plating: HEK293 cells expressing NR1/NR2A (Chantest, Cleveland, Ohio) were grown to 70-80% confluency as an adherent monolayer in standard tissue culture flasks at 37° C., 5% CO2 per supplier's instructions.
After induction, cell culture medium was removed and cells were rinsed once with Ca^2+ and Mg^2+-free Dulbecco's phosphate buffered saline. Cells were then removed from the flask using TrypLE™ Express (Life Technologies) according to the manufacturer's instructions and collected to 50 ml centrifuge tubes. Following two washes in Ca^27 Mg^2′-free HBSS with 20 mM HEPES (HHnoCa), cells were counted and viability assessed using trypan blue. To load cells with Ca^2′-sensitive dye, they were resuspended in fluo-8 plus Component B (AAT Bioquest Products) diluted in HHnoCa and incubated 15 minutes at 37° C., followed by 30 minutes at room temp (in dark). Cells were then washed and resuspended in HHnoCa to remove extracellular dye and plated in 384-well plates (Falcon, uncoated) at 20,000-30,000 cells/well in a final volume of 25 μL/well.
FDSS Assay: To each well of the plate, 10 μLtest compound, control (MK801) or HHnoCa buffer was added to a final concentration of 10 μM with a final concentration of DMSO of 0.1%. Following 10 minutes pre-incubation in the dark, plates are loaded onto the Hamamatsu FDSS 6000. After collecting baseline fluorescence images, 3 μM glutamate, 3 μM glycine, and 1 mM Ca^2+ in HHnoCa buffer is added to each well, and Ca^2+ is recorded for 3 minutes. Data were processed by computing ratio of fluorescence at the end of data collection to baseline fluorescence to assess degree of Ca^2+ influx inhibition relative to that observed in MK801.

T1 sequence (Q12879 23-1464, other chains not shown): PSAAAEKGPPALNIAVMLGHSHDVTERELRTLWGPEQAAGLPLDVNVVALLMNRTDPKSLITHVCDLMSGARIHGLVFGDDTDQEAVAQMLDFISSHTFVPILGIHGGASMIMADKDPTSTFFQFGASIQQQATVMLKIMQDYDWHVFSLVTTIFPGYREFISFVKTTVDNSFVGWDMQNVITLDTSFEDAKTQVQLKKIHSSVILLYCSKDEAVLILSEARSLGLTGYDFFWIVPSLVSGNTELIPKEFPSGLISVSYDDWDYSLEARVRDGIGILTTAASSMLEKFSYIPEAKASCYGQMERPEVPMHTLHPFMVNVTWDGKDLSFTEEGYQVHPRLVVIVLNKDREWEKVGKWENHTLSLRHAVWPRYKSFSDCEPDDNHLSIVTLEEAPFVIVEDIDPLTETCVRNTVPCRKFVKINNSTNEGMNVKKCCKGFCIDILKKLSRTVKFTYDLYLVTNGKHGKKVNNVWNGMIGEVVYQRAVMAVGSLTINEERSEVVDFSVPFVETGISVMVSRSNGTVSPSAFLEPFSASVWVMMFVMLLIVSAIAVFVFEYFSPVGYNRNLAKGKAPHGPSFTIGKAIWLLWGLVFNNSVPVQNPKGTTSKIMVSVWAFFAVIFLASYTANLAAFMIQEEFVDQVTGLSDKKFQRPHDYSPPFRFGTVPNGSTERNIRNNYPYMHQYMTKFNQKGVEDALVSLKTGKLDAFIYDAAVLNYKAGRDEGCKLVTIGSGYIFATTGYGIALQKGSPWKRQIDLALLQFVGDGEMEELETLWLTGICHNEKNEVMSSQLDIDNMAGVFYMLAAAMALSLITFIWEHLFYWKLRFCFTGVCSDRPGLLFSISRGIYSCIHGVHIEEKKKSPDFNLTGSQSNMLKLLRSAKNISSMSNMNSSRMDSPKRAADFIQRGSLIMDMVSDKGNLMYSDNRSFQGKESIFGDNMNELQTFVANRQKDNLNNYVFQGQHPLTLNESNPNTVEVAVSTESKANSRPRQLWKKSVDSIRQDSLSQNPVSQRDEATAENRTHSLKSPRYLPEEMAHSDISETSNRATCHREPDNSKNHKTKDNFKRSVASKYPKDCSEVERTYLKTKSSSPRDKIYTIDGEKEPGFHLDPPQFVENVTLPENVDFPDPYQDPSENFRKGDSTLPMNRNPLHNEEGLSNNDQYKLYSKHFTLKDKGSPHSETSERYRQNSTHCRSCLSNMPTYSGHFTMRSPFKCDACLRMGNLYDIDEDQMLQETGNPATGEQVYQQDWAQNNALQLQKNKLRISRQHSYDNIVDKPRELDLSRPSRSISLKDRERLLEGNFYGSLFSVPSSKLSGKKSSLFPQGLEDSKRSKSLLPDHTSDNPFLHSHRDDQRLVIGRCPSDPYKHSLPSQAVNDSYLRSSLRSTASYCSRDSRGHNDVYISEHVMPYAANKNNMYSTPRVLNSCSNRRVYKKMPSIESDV

`Cc1ncc(CNC(=O)c2cnc(CNS(=O)(=O)c3cc(F)cc(F)c3)c(C)n2)s1` [5-(3,5-difluorobenzenesulfon-amidomethyl)-6-methyl-N-[(2-methyl-1,3-thiazol-5-yl)methyl]pyrazine-2-carboxamide]: the 50% inhibitory concentration (IC50) was determined as 0.366 µM. The figure for `COc1cccc(CNC(=O)c2ccc(CNS(=O)(=O)c3ccc(F)c(Cl)c3)cn2)c1` [5-(3-chloro-4-fluorobenzenesulfon-amidomethyl)-N-[(3-methoxyphenyl)methyl] pyridine-2-carboxamide] is 3.37 µM; for `Cc1ncc(CNC(=O)c2cnc(CNS(=O)(=O)c3ccc(Cl)c(Cl)c3)c(C)n2)s1` [5-(3,4-dichlorobenzenesulfon-amidomethyl)-6-methyl-N-[(2-methyl-1,3-thiazol-5-yl)methyl]pyrazine-2-carboxamide] it is 0.494 µM; for `O=C(NCc1cccnc1)c1ccc(CNS(=O)(=O)c2ccc(F)c(Cl)c2)cn1` [5-(3-chloro-4-fluorobenzenesulfon-amidomethyl)-N-(pyridin-3-ylmethyl)pyridine-2-carboxamide] it is 0.758 µM. The result for `Cc1ncc(CNC(=O)c2cnc(CNS(=O)(=O)c3ccc(F)c(Cl)c3)c(C(F)(F)F)n2)s1` [5-(3-chloro-4-fluorobenzenesulfon-amidomethyl)-N-[(2-methyl-1,3-thiazol-5-yl)methyl]-6-(trifluoromethyl)pyrazine-2-carboxamide] reads 0.169 µM; that for `O=C(NCc1cncc(F)c1)c1cnc(CNS(=O)(=O)c2ccc(F)c(Cl)c2)cn1` [5-(3-chloro-4-fluorobenzenesulfon-amidomethyl)-N-[(5-fluoropyridin-3-yl)methyl]pyrazine-2-carboxamide], 1.1 µM. Consider `Cc1ncc(CNC(=O)c2ccc(CNS(=O)(=O)c3ccc(Cl)c(F)c3)cn2)s1` [5-(4-chloro-3-fluorobenzenesulfon-amidomethyl)-N-[(2-methyl-1,3-thiazol-5-yl)methyl]pyridine-2-carboxamide], for which the IC50 amounted to 7.45 µM.

Take `O=C(NCc1cccnc1)c1ccc(CNS(=O)(=O)c2ccc(F)c(Cl)c2)nc1` [6-(3-chloro-4-fluorobenzenesulfon-amidomethyl)-N-(pyridin-3-ylmethyl)pyridine-3-carboxamide]: the IC50 stood at 11 µM. On to `Cc1ncc(CNC(=O)c2cnc(CNS(=O)(=O)c3ccc(Cl)c(F)c3)c(C)n2)s1` [5-(4-chloro-3-fluorobenzenesulfon-amidomethyl)-6-methyl-N-[(2-methyl-1,3-thiazol-5-yl)methyl]pyrazine-2-carboxamide], for which the IC50 came out at 1.02 µM. The figure for `Cc1ncc(CNC(=O)c2cnc(CNS(=O)(=O)c3ccc(F)c(Cl)c3)c(C)n2)s1` [5-(3-chloro-4-fluorobenzenesulfon-amidomethyl)-6-methyl-N-[(2-methyl-1,3-thiazol-5-yl)methyl]pyrazine-2-carboxamide] is 0.0196 µM; for `O=C(NCc1cnccn1)c1ccc(CNS(=O)(=O)c2ccc(F)c(Cl)c2)nc1` [6-(3-chloro-4-fluorobenzenesulfon-amidomethyl)-N-(pyrazin-2-ylmethyl)pyridine-3-carboxamide] it is 0.79 µM; for `Cn1cc(CNC(=O)c2ccc(CNS(=O)(=O)c3ccc(F)c(Cl)c3)cn2)cn1` [5-(3-chloro-4-fluorobenzenesulfon-amidomethyl)-N-[(1-methyl-1H-pyrazol-4-yl)methyl]pyridine-2-carboxamide] it is 4.59 µM. The figure for `Cc1ccc(CNC(=O)c2cnc(CNS(=O)(=O)c3ccc(F)c(Cl)c3)cn2)n1C` [5-(3-chloro-4-fluorobenzenesulfon-amidomethyl)-N-[(1,5-dimethyl-1H-pyrrol-2-yl)methyl]pyrazine-2-carboxamide] is 0.757 µM; for `Cc1ncc(CNC(=O)c2cnc(CNS(=O)(=O)c3ccc(F)c(F)c3)cn2)s1` [5-(3,4-difluorobenzenesulfon-amidomethyl)-N-[(2-methyl-1,3-thiazol-5-yl)methyl]pyrazine-2-carboxamide] it is 0.313 µM; for `O=C(NCc1ccncc1)c1cnc(CNS(=O)(=O)c2ccc(F)c(Cl)c2)cn1` [5-(3-chloro-4-fluorobenzenesulfon-amidomethyl)-N-(pyridin-4-ylmethyl)pyrazine-2-carboxamide] it is 1.7 µM. Take `COc1cc(CNC(=O)c2ccc(CNS(=O)(=O)c3ccc(F)c(Cl)c3)cn2)ccn1` [5-(3-chloro-4-fluorobenzenesulfon-amidomethyl)-N-[(2-methoxypyridin-4-yl)methyl]pyridine-2-carboxamide]: the IC50 came out at 3.02 µM. The result for `Cn1cccc1CNC(=O)c1ccc(CNS(=O)(=O)c2ccc(F)c(Cl)c2)cn1` [5-(3-chloro-4-fluorobenzenesulfon-amidomethyl)-N-[(1-methyl-1H-pyrrol-2-yl)methyl]pyridine-2-carboxamide] reads 2.55 µM; that for `Cc1ncc(C(C)NC(=O)c2cnc(CNS(=O)(=O)c3ccc(F)c(Cl)c3)cn2)s1` (centres unmarked) [5-(3-chloro-4-fluorobenzenesulfon-amidomethyl)-N-[1-(2-methyl-1,3-thiazol-5-yl)ethyl]pyrazine-2-carboxamide], 0.18 µM. The figure for `Cc1cnc(CNC(=O)c2cnc(CNS(=O)(=O)c3ccc(F)c(Cl)c3)cn2)cn1` [5-(3-chloro-4-fluorobenzenesulfon-amidomethyl)-N-[(5-methylpyrazin-2-yl)methyl]pyrazine-2-carboxamide] is 1.25 µM; for `Cc1ncc(CNC(=O)c2ccc(CNS(=O)(=O)c3ccc(Cl)c(Cl)c3)cn2)s1` [5-(3,4-dichlorobenzenesulfon-amidomethyl)-N-[(2-methyl-1,3-thiazol-5-yl)methyl]pyridine-2-carboxamide] it is 6.68 µM; for `C[C@@H](NC(=O)c1cnc(CNS(=O)(=O)c2ccc(F)c(Cl)c2)cn1)c1cncs1` [5-(3-chloro-4-fluorobenzenesulfon-amidomethyl)-N-[(1R)-1-(1,3-thiazol-5-yl)ethyl]pyrazine-2-carboxamide] it is 10.5 µM.

In the case of `Cc1cnc(CNC(=O)c2ccc(CNS(=O)(=O)c3ccc(F)c(Cl)c3)nc2)cn1` [6-(3-chloro-4-fluorobenzenesulfon-amidomethyl)-N-[(5-methylpyrazin-2-yl)methyl]pyridine-3-carboxamide], the half-maximal inhibitory concentration (IC50) stood at 0.63 µM.

With `Cc1ncc(CNC(=O)c2ccc(CNS(=O)(=O)c3ccc(F)cc3)cn2)s1` [5-(4-fluorobenzenesulfon-amidomethyl)-N-[(2-methyl-1,3-thiazol-5-yl)methyl]pyridine-2-carboxamide], the IC50 amounted to 2.84 µM.

Regarding `CCc1nc(C(=O)NCc2cnc(C)s2)cnc1CNS(=O)(=O)c1ccc(F)c(Cl)c1` [5-(3-chloro-4-fluorobenzenesulfon-amidomethyl)-6-ethyl-N-[(2-methyl-1,3-thiazol-5-yl)methyl]pyrazine-2-carboxamide], the IC50 was 0.0878 µM. Consider `Cn1cccc1CNC(=O)c1cnc(CNS(=O)(=O)c2ccc(F)c(Cl)c2)cn1` [5-(3-chloro-4-fluorobenzenesulfon-amidomethyl)-N-[(1-methyl-1H-pyrrol-2-yl)methyl]pyrazine-2-carboxamide], for which the concentration for half-maximal inhibition (IC50) was found to be 3.09 µM.

Consider `Cc1nnc(CNC(=O)c2cnc(CNS(=O)(=O)c3ccc(F)c(Cl)c3)cn2)s1` [5-(3-chloro-4-fluorobenzenesulfon-amidomethyl)-N-[(5-methyl-1,3,4-thiadiazol-2-yl)methyl]pyrazine-2-carboxamide], for which the IC50 stood at 0.624 µM.
